Article PMC12730730, “CAPE Derivatives as Potent Agents for Induction of Osteogenic Differentiation in DPSCs and Biomaterial Development” (Biomedicines, 2025)
“Also recorded” adds a separate entry of the source.

Tests used:
[1] = Kinetic of chemical hydrolysis in 0.02 M phosphate buffer, HPLC; type: physicochemical; settings: for half-life: phosphate buffer
Method: For compounds 1a and 1d, the chromatographic analyses were performed using a 1260 Infinity II HPLC (Agilent, Santa Clara, CA, USA) consisting of a 1260 Infinity II Quaternary Pump (model G7111A), 1260 Infinity II auto-sampler (model G7129A), a 1260 Infinity II Multicolumn Thermostat (model G7116A), and a 1260 Infinity II Diode Array Detector (model G7115A) equipped with Poroshell 120 EC-C18 (150 × 4.6 mm i.d., particle size 4 µm, Agilent), operating at 20 °C.
Samples were run using a mixture of water and acetonitrile, enriched with trifluoroacetic acid (0.1% v/v) as mobile phase, in a gradient elution mode starting from 90% to 10% of water over 15 min (Table 2) at a flow rate of 0.8 mL/min. Stock solutions (10 mg/mL) were prepared by dissolving the exact amount of each compound in DMSO and acetonitrile (1:1), and then diluted with acetonitrile to reach 250 µg/mL concentration and analyzed by HPLC, setting the UV-detector at 254 nm.
CAPE, 1a and 1d stock solutions (10 mg/mL) were diluted in prewarmed (37 ± 0.5 °C) PBS solution to reach 10^−4 M concentration (50 mL); these conditions were used to initiate the reaction. At established time points, samples of 250 µL were withdrawn, filtered, and analyzed by HPLC. The pseudo-first-order rate constant (kobs) for the compound hydrolysis was calculated from the slops of the linear plots of ln (% residual compound) against time. The samples were analyzed in triplicate.

[2] = test system: SAOS-2 osteoblastic cell lines; settings: cited from earlier work
[3] = test system: calvarial-derived cells; set-up: method as in Jun et al. 54; settings: long-term cultures of calvarial-derived cells; ref Jun et al. 54; cited from earlier work
[4] = test system: osteoblastic cells; set-up: method as in PMID 17979115; settings: cited from earlier work
[5] = Thermal stability of the solid compounds, 1H-NMR before and after heating; type: physicochemical; settings: 20 min at 100 °C, water bath, solid compound
Method: To ensure the suitability of compounds 1a and 1d for adsorption onto biomaterials, their thermal stability was confirmed. Initially, ^1H-NMR spectra were acquired for the compounds. Subsequently, they were subjected to heating for 20 min at 100 °C by immersing glass tubes containing the solid compounds in a water bath. Following the heating process, their ^1H-NMR spectra were reacquired and compared with the initial spectra to assess any alterations.

[6] = test system: DPSCs; experiment: Crystal violet cell viability assay of DPSCs in osteogenic medium; type: cell-based; settings: 0.5, 1 and 5 µM; 3, 7, 14, 21 and 28 days; vs Control (diff)
Method: Dental pulp stem cells (DPSCs) were cultured in α-MEM medium (Merck, Darmstadt, Germany), supplemented with 10% fetal bovine serum (FBS) and 1% penicillin/streptomycin (Euroclone S.p.A., Milan, Italy). The cells were purchased from Lonza (Lonza Group Ltd., Basel, Switzerland) and kept at 37 °C and 5% CO2.
Cell viability (relative numbers compared to control cells) was determined by a crystal violet assay. After reaching the growth exponential phase, DPSCs were seeded into 48-well culture plates at a density of 8 × 10^3 cells per well. After 24 h, different concentrations (ranging from 0 to 5 µM) of each compound (1a, 1d, 2a and 2d) were added to DPSCs in an osteogenic medium, whereas cells cultured in the same osteogenic medium without CAPE derivatives served as control. After 3, 7, 14, 21, and 28 days, the medium was removed from each well, a wash with PBS was performed and cell were then fixed with glutaraldehyde (1%), and stained at room temperature with a crystal violet solution (0.02%) (both from Thermo Fisher Scientific, Waltham, MA, USA). After 30 min, the cells were rinsed with tap water, and bound crystal violet was dissolved in 70% ethanol. Then, absorbance was read at 600 nm with a spectrophotometer (Multiskan GO, Thermo Fisher Scientific, Waltham, MA, USA). The optical density readings were used to indicate cell survival relative to untreated cultures.

[7] = test system: Osterix (SP7); experiment: Real-time RT-PCR, Osterix (SP7) gene expression in DPSCs; type: cell-based; settings: 0.5 µM, vs control sample
Method: (§1) After 7, 14, and 21 days of treatment, DPSCs were collected and RNA was extracted by PureLink® RNA Mini Kit (Life Technologies, Carlsbad, CA, USA). An amount of 300 µL of lysis buffer supplied with 1% of 2-mercaptoethanol and then 300 µL of 70% v/v ethanol were added to each cell pellet, and samples were transferred into the Spin Cartridge for RNA extraction and purification. After washing with Wash Buffer supplied by the kit, samples were incubated for 15 min with 80 µL of DNase mixture (On-column PureLink® DNase Treatment, Thermo Fisher Scientific) to remove contaminating DNA. RNA extracted from each sample was eluted in 30 µL of Nuclease-Free Water. RNA concentration (ng/µL) was determined through Qubit® RNA BR Assay Kits (Thermo Fisher Scientifc).
(§2) A total of 1 µg of RNA was reverse-transcribed by high-capacity cDNA Reverse Transcription Kit (Life Technologies). Samples were incubated in a thermal cycler at 25 °C for 10 min, 37 °C for 2 h, and 85 °C for 5 min.
(§3) For all the examined mRNAs, gene expression was determined by quantitative PCR using PowerUpTM SYBRTM Green Master Mix (2×) (Thermo Fisher Scientific). Each amplification reaction was performed in a MicroAmp® Optical 96-well Reaction Plate (Life Technologies, Carlsbad, CA, USA) in a reaction volume of 20 µL made up of 10 µL of SYBR Green, 1 µM of each primer (stock solution 100 µM), 10 ng of cDNA and Nuclease-Free Water.
(§4) The run consisted of 50 °C for 2 min, 95 °C for 2 min, 40 cycles of amplification at 95 °C for 15 s and 60 °C for 1 min in QuantStudio 3 (Thermo Fisher Scientific). QuantStudio™ Design & Analysis Software v1.5.1 (Thermo Fisher Scientific) was used to elaborate gene expression data. The authenticity of the PCR products was verified by melt curve analysis. Each gene expression value was normalized to the expression level of 18S. The fold changes of the investigated genes were expressed in relation to the level of 18S at different time points. The relative abundance of mRNA (relative quantification) was quantified using the comparative ^2−∆∆Ct method.

[8] = set-up: method as in PMID 39054610; settings: 30 min at 50 °C; cited from earlier work
[9] = test system: DPSCs; experiment: Alizarin Red S staining, extracellular mineralized matrix deposition; type: cell-based; settings: for Extracellular mineralized matrix deposition compared to non-treated cells (Alizarin Red): 28 days in differentiation medium, 0.5, 1 and 5 µM; for Concentrations at which matrix deposition / mineralization is enhanced: 28 days, tested 0.5, 1 and 5 µM
Method: (§5) DPSCs were seeded at a density of 3.5 × 10^4 in 12-well plates in the presence of differentiation medium, which consists of complete α-MEM supplemented with 10 nM dexamethasone, 10 mM β-glycerophosphate and 0.2 mM ascorbic acid phosphate (all purchased from Sigma-Aldrich, St. Louis, MO, USA). At the established experimental times (3, 7, 14, 21 and 28 days), cells and/or supernatants were collected for further analyses.
Alizarin red staining was performed after 28 days, by washing twice with PBS with Ca^2+/Mg^2+ each well, and fixing the cell monolayer of DPSCs in paraformaldehyde 4% for 15 min at room temperature. After washing twice with deionized water, 40 mM Alizarin Red S solution (Sigma-Aldrich) was added to each well and left at room temperature for 20 min on a shaker, followed by several rinses with deionized water in order to eliminate dye excess. For the spectrophotometric evaluation of calcium level deposits, 800 µL/well of 10% acetic acid was added to each well and then incubated for 30 min in agitation. Wells were then scraped and the sample containing calcium deposits was collected and vortexed. After the addition of hot mineral oil (Sigma-Aldrich), the samples were incubated on ice for 5 min and then centrifuged at 20,000× g for 15 min. After the removal of the supernatant, 10% ammonium hydroxide was added, and the optical density of 150 µL aliquots of this solution was measured at 405 nm through a microplate reader (Multiskan GO, Thermo Fisher Scientific).

[10] = test system: BMP2; experiment: Real-time RT-PCR, BMP2 gene expression in DPSCs; type: cell-based; settings: 0.5 µM, vs Control (diff)
Method: as §1, §2, §3, §4

[11] = test system: Alkaline phosphatase (ALP) activity in DPSCs; experiment: Alkaline phosphatase (ALP) activity in supernatants of differentiating DPSCs; type: cell-based; settings: 0.5 µM; 3, 7, 14, 21 and 28 days; vs control (diff)
Method: as §5
A colorimetric Alkaline Phosphate Assay Kit (Abcam, Cambridge, UK) was used following manufacturer’s instructions. Briefly, 50 µL of 5 mM p-nitrophenyl phosphate (pNPP) was added to 80 µL of each supernatant and then incubated for 1 h at room temperature in the dark. After the addition of 20 µL of stopping solution, the absorbance was read at 405 nm wavelength through a microplate reader (Multiskan GO, Thermo Fisher Scientific). The ALP activity (mU/mL/min) was calculated in accordance with the manufacturer’s protocol.

[12] = test system: Collagen type I; experiment: ELISA of collagen type I release in DPSC supernatants; type: cell-based, human; settings: 0.5 µM; 7, 14 and 21 days; normalized on crystal violet values
Method: as §5
The release of collagen type I in cell supernatants was measured by a Human Collagen Type 1 ELISA kit (Cosmo Bio Co., Ltd., Tokyo, Japan; cat. no. ACE-EC1-E105-EX). The absorbance was measured at 450 nm spectrophotometrically (Multiskan GO, Thermo Fisher Scientific). The concentration of collagen type I (µg/mL) was calculated using a standard curve generated with specific standards provided by the manufacturers and normalized with the crystal violet values.

Compound	Kobs ([1]; pH 4.5, 37 °C)	t1/2 ([1]; pH 4.5, 37 °C)	Kobs ([1]; pH 7.4)	half-life ([1]; pH 4.5, pH 4.5, 37 °C)	half-life ([1]; pH 7.4, pH 7.4)	Thermal stability (identical 1H NMR spectra before and after heat) [5]	Cell viability / toxicity towards DPSCs [6]	Osx (SP7) relative gene expression ([7]; 21 days)	Thermal stability (consistent 1H NMR spectra before and after heat) [8]	Extracellular mineralized matrix deposition compared to non-treated cells (Alizarin Red) [9]	Concentrations at which matrix deposition / mineralization is enhanced [9]	BMP2 relative gene expression ([10]; 21 days)	ALP activity compared to non-treated cells [11]	Collagen type I release with respect to the control sample [12]	further results
O=C(/C=C/c1ccc(O)c(O)c1)OCCc1ccccc1 [CAPE, caffeic acid phenethyl ester]	0.006 (±0.0009) h^−1	117.5 (±2.10) h	0.018 (±0.004) h^−1	117 h	38.5 h	–	–	–	–	–	–	–	–	–	Cytotoxicity at similar concentrations (0.5-5 µM range) ([2]; SAOS-2 osteoblastic cell lines): does not exhibit cytotoxicity; Concentrations that reduce cell viability [2]: above 10 µM; Concentrations at which toxicity is reported [3]: above 17.6 µM; ECM mineralization ([4]; CAPE at 10 μM): reduction in ECM mineralization; ECM mineralization compared to the control group ([4]; CAPE at concentrations up to 100 nM): greater mineralization
O=C(/C=C/c1ccccc1)Oc1cccc2cccnc12 [compound 1a]	0.009 (±0.0008) h^−1	–	–	80.6 h	–	stable	no toxicity	2.26 fold	stable	more effective in enhancing matrix deposition	across all tested concentrations	2.2 fold	significantly higher than non-treated cells at all time points	higher quantity of Collagen type I	t1/2 ([1]; pH 7.4): no degradation; also recorded: stable; Osx (SP7) relative gene expression ([7]; 14 days): 4.8 fold; BMP2 relative gene expression ([10]; 14 days): 1.2 fold
O=C(/C=C/c1ccc(O)c(O)c1)Oc1cccc2cccnc12 [compound 1d]	–	no degradation; also recorded: stable	0.033 (±0.002) h^−1	–	21.2 h	stable	no toxicity	2.19 fold	stable	more effective in enhancing matrix deposition	only enhance mineralization at the lowest concentration	–	significantly higher than non-treated cells at all time points	higher quantity of Collagen type I	BMP2 relative gene expression ([10]; 7 days): significantly increased BMP2 expression
O=C(/C=C/c1ccccc1)Nc1cccc2cccnc12 [compound 2a]	–	–	–	–	–	–	no toxicity	–	–	no significant changes	–	–	–	–	–
O=C(/C=C/c1ccc(O)c(O)c1)Nc1cccc2cccnc12 [compound 2d]	–	–	–	–	–	–	no toxicity	–	–	more effective in enhancing matrix deposition	only enhance mineralization at the lowest concentration	higher BMP2 expression only after 21 days	significantly higher than non-treated cells at all time points	–	–
